Data from ChEMBL document CHEMBL2434827, “Selective inhibition of heme oxygenase-2 activity by analogs of 1-(4-chlorobenzyl)-2-(pyrrolidin-1-ylmethyl)-1H-benzimidazole (clemizole): Exploration of the effects of substituents at the N-1 position” (Bioorg Med Chem, 2013).

Legend:
Rattus norvegicus = species: Rattus norvegicus; assay: Selectivity index, ratio of IC50 for HO-1 in Sprague-Dawley rat spleen microsomal fractions to IC50 for HO-2 in Sprague-Dawley rat brain microsomal fractions; type: microsomes; settings: Microsome
Heme oxygenase 2 = biological target: T1, Heme oxygenase 2 (Rattus norvegicus, UniProt P23711); assay: Inhibition of HO-2 in Sprague-Dawley rat brain microsomal fractions assessed as carbon monoxide formation from methemalbumin after 10 mins by gas chromatography analysis; type: microsomes
T1 sequence (P23711 whole entry): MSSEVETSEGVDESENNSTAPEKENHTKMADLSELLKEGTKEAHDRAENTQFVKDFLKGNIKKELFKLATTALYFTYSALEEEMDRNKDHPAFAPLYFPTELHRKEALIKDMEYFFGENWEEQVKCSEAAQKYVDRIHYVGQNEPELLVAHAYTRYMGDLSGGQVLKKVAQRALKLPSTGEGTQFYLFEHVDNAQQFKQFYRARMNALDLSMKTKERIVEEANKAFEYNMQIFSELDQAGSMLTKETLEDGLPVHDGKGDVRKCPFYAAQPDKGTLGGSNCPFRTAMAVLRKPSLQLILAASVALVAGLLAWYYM

Heme oxygenase 1 = biological target: T2, Heme oxygenase 1 (Rattus norvegicus, UniProt P06762); assay: Inhibition of HO-1 in Sprague-Dawley rat spleen microsomal fractions assessed as carbon monoxide formation from methemalbumin after 10 mins by gas chromatography analysis; type: microsomes, Microsome
T2 sequence (P06762 whole entry): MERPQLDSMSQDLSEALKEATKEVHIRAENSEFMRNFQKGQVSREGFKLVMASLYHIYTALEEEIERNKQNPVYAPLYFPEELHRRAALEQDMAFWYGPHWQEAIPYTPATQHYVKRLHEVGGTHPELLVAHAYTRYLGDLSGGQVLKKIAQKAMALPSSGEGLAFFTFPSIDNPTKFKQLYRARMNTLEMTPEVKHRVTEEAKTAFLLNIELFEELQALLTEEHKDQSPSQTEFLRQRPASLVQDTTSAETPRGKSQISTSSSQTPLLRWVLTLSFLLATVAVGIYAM

SMILES	Ratio IC50 (Rattus norvegicus)	IC50 (Heme oxygenase 2) [µM]	IC50 (Heme oxygenase 1) [µM]
c1ccc(CCn2c(CN3CCCC3)nc3ccccc32)cc1	> 37	2.7	> 100
FC(F)(F)c1ccc(Cn2c(CN3CCCC3)nc3ccccc32)cc1	> 6.4	15.6	> 100
Clc1ccc(Cn2c(CN3CCCC3)nc3ccccc32)cc1Cl	> 5	17	> 100
Clc1cccc(Cl)c1Cn1c(CN2CCCC2)nc2ccccc21	> 10	9.2	> 100
Clc1ccc(Cn2c(CN3CCCC3)nc3ccccc32)cc1	> 29	3.4	> 100
Clc1cccc(Cn2c(CN3CCCC3)nc3ccccc32)c1	> 60	1.65	> 100
N#Cc1cccc(Cn2c(CN3CCCC3)nc3ccccc32)c1	> 6	15.8	> 100
N#Cc1ccccc1Cn1c(CN2CCCC2)nc2ccccc21	> 25	4	> 100
Cc1cccc(Cn2c(CN3CCCC3)nc3ccccc32)c1	> 20	5	> 100
Clc1cc(Cl)cc(Cn2c(CN3CCCC3)nc3ccccc32)c1	> 47	2.1	> 100
c1ccc2cc(Cn3c(CN4CCCC4)nc4ccccc43)ccc2c1	> 20	5	> 100
Brc1cccc(Cn2c(CN3CCCC3)nc3ccccc32)c1	> 66	1.5	> 100
c1ccc(C(c2ccccc2)n2c(CN3CCCC3)nc3ccccc32)cc1	> 24	4.1	> 100
Clc1cccc(Cn2c(CN3CCCC3)nc3ccccc32)c1Cl	> 6	14.7	> 100
CC(C)c1ccc(Cn2c(CN3CCCC3)nc3ccccc32)cc1	> 1.8	55	> 100
COc1ccc(Cn2c(CN3CCCC3)nc3ccccc32)cc1	> 5	18	> 100
Clc1ccc(Cn2c(CN3CCCC3)nc3ccccc32)c(Cl)c1	10	6.1	62
O=[N+]([O-])c1ccccc1Cn1c(CN2CCCC2)nc2ccccc21	> 28	3.5	> 100

SMILES	Ratio IC50 (Rattus norvegicus)	IC50 (Heme oxygenase 2) [µM]	IC50 (Heme oxygenase 1) [µM]
O=[N+]([O-])c1cccc(Cn2c(CN3CCCC3)nc3ccccc32)c1	> 76	1.3	> 100
CCCn1c(CN2CCCC2)nc2ccccc21	> 3	27	> 100
O=[N+]([O-])c1ccc(Cn2c(CN3CCCC3)nc3ccccc32)cc1	> 3	27	> 100
Cc1ccc(Cn2c(CN3CCCC3)nc3ccccc32)cc1	> 20	5	> 100
c1ccc2c(c1)nc(CN1CCCC1)n2CC1CCCCC1	> 16	6	> 100
Clc1ccc(Cl)c(Cn2c(CN3CCCC3)nc3ccccc32)c1	24	4	96
c1ccc2[nH]c(CN3CCCC3)nc2c1		> 100	> 100
Clc1ccccc1Cn1c(CN2CCCC2)nc2ccccc21	> 20	4.8	> 100
CSc1ccc(Cn2c(CN3CCCC3)nc3ccccc32)cc1	> 6	15	> 100
Cc1ccccc1Cn1c(CN2CCCC2)nc2ccccc21	42	1.8	76
Brc1ccc(Cn2c(CN3CCCC3)nc3ccccc32)cc1	> 38	2.6	> 100
Brc1ccccc1Cn1c(CN2CCCC2)nc2ccccc21	26	1.6	42
c1ccc(Cn2c(CN3CCCC3)nc3ccccc32)cc1	> 32	3.1	> 100
N#Cc1ccc(Cn2c(CN3CCCC3)nc3ccccc32)cc1	> 9	11	> 100
Ic1ccc(Cn2c(CN3CCCC3)nc3ccccc32)cc1	> 13	7.6	> 100
Fc1ccc(Cn2c(CN3CCCC3)nc3ccccc32)cc1	> 50	2	> 100
c1ccc(OCCn2c(CN3CCCC3)nc3ccccc32)cc1		> 100	> 100
c1ccc(COc2ccc(Cn3c(CN4CCCC4)nc4ccccc43)cc2)cc1	> 1.5	63	> 100
